Values of other authors in patent US20110287097A1, “PHARMACEUTICAL COMPOSITIONS COMPRISING ROPINIROLE” (DR. REDDY'S LABORATORIES, INC., priority 2007, published 2011).

## CCCN(CCC)CCc1cccc2c1CC(=O)N2 [Ropinirole, 4-[2-(dipropylamino)ethyl]-1,3-dihydro-2H-indol-2-one]
After administration of an immediate release tablet
  time to peak plasma concentration: 1 to 2 h
In vivo
  absolute systemic bioavailability: 55%
  mean plasma elimination half-life: approximately 6 hours
